Results as given in patent US20090274687A1, “ATTENUATION OF HYPOXIA INDUCED CARDIOVASCULAR DISORDERS” (University Of Miami, priority 2008, published 2009).
Entries after “also recorded” stand apart in the source; their conditions may differ.

Columns and labels:
CXCR4 receptor = details: cited from earlier work
[1] = tested on: FVB/NJ neonatal mice exposed to normobaric hypoxia (hypoxia-induced pulmonary hypertension); assay: Prevention: neonatal mice exposed to 1 wk hypoxia, daily intraperitoneal treatment postnatal day 1-7; format: in vivo
Description: Animal Care and Treatment: Sixty Eight FVB/NJ neonatal mice exposed to normobaric hypoxia (10% O2) or normoxia (20.9% O2) for one week were randomly assigned to receive daily intraperitoneal injections of normal saline (PL; n=19), or AMD3100 (7.5 mg/kg; n=10) or anti-SDF-1 antibody ([…]; n=19) for seven days, from postnatal day 1-7.

SMILES: c1cc(CN2CCCNCCNCCCNCC2)ccc1CN1CCCNCCNCCCNCC1 [AMD3100, 1,1′-[1,4-phenylenebis(methylene)]bis-1,4,8,11-tetraazacyclotetradecane]
- affinity relative to its affinity in CXCR4 (CXCR4 receptor; after introduction of Glu VII:06 and removal of Lys VII:02): ≤ 10 fold
- increase in affinity of AMD3100 (CXCR4 receptor; introduction of a Glu at position VII:06 and removal of a neutralizing Lys residue at position VII:02): 1000 fold
- vascular remodeling (medial wall thickness), morphometric analysis of pulmonary arterioles ([1]; 1 wk hypoxia, 20-50 μm diameter arterioles, vs Hyp PL, FIG. 5D): marked decrease; also recorded: markedly attenuated
- RV c-kit expression ([1]; 1 wk hypoxia, right ventricle, vs Hyp PL, FIG. 4C): significantly decreased
- RV Sca-1 expression ([1]; 1 wk hypoxia, right ventricle, vs Hyp PL, FIG. 4D): significantly decreased
- RV Isl-1 expression ([1]; 1 wk hypoxia, right ventricle, vs Hyp PL, FIG. 4E): significantly decreased
- protein expression of stem cell markers (c-kit, Sca-1) in lungs and right ventricles ([1]; 1 wk hypoxia, to baseline or near baseline values, FIGS. 4A-4E): significantly decreased
- lung c-kit expression ([1]; 1 wk hypoxia, vs Hyp PL, to near baseline values, FIG. 4A): significantly decreased
- lung Sca-1 expression ([1]; 1 wk hypoxia, vs Hyp PL, to near baseline values, FIG. 4B): significantly decreased
- RVSP ([1]; 1 wk hypoxia, vs placebo, FIG. 5A): close to baseline values; also recorded: significantly attenuated
- RV Hypertrophy (RV/LV+S) ([1]; 1 wk hypoxia, vs placebo, FIG. 5B): close to baseline values; also recorded: significantly attenuated
- number of muscularized pulmonary arterioles (α-smooth muscle actin staining) ([1]; 1 wk hypoxia, vs placebo, FIG. 5C): decreased
- percentage of non-muscularized pulmonary arterioles ([1]; 1 wk hypoxia, vs placebo, FIG. 5E): significantly increased
- mean linear intercept (MLI), lung alveolarization ([1]; 1 wk hypoxia, vs placebo, FIG. 5F): significantly decreased
- number of PCNA+ cells in the pulmonary vasculature (cell proliferation) ([1]; hypoxic mouse pups vs Hyp PL, FIGS. 6A-6B): significantly attenuated
- number of TUNEL+ cells in the pulmonary vasculature (apoptosis) ([1]; hypoxic mouse pups vs Hyp PL, FIGS. 6D-6E): significantly attenuated
- phosphorylated-Akt expression in lungs ([1]; treated mouse pups vs placebo, FIG. 6C): marked decrease
